Laboratory results taken from patent publication US20160122320A1, “USEFUL COMBINATIONS OF MONOBACTAM ANTIBIOTICS WITH BETA-LACTAMASE INHIBITORS” (Basilea Pharmaceutica AG, priority 2005, published 2016).

Experiments:
Experiment in all cases: MIC, NCCLS broth microdilution
Assay type in all cases: cell-based
Acinetobacter sp. J2 = conditions: Acinetobacter baumannii J2
[1] = tested on: Enterobacter aerogenes Zayakosky; conditions: Enterobacter aerogenes Zayakosky; + compound 323 and sulbactam, 4 mg/L each
[2] = tested on: Stenotrophomonas malthophilia 1AC736; conditions: Stenotrophomonas maltophilia 1AC736
Serratia marcescens S6 = tested on: Serratia marcescens S6
[3] = tested on: Pseudomonas aeruginosa 1973E
Summary of the method: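 Growth inhibition read by eye after overnight incubation (30° C. or 37° C.) defines the MIC, using NCCLS M7-A5 broth microdilution with ≤1% DMSO. When combinations were tested, only the formula I compound was titrated and each partner was fixed at 4 μg/mL.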

[4] = tested on: Enterobacter aerogenes B1
[5] = tested on: Klebsiella pneumoniae CF104
[6] = tested on: Pseudomonas aeruginosa MK1184; conditions: with 102 and sulbactam

Question: With C[C@H]1[C@H](NC(=O)/C(=N\OC(C)(C)C(=O)O)c2csc(N)n2)C(=O)N1S(=O)(=O)O [Aztreonam, aztreonam, reference compound] as the compound, how does the “MIC of antibiotic at fixed inhibitor concentration of 4 mg/L” value (Acinetobacter sp. J2; with 102 and clavulanate) read?
Answer: Its value is 16 mg/L.

Question: And the “MIC of antibiotic at fixed inhibitor concentration of 4 mg/L” value (Acinetobacter sp. J2; with 102 and sulbactam)?
Answer: The value was 4 mg/L.

Question: And the “Minimal Inhibitory Concentration of antibiotic at fixed inhibitor concentration of 4 mg/L” value (“Minimal Inhibitory Concentration” below) [1]?
Answer: The value was 8 mg/L.

Question: And the “MIC of antibiotic at fixed inhibitor concentration of 4 mg/L” value ([2]; with 102 and clavulanate)?
Answer: Its value is 4 mg/L.

Question: What about the “MIC of antibiotic at fixed inhibitor concentration of 4 mg/L” value ([2]; with 102 and sulbactam) of the same compound?
Answer: The value was 8 mg/L.

Question: And the “MIC of antibiotic at fixed inhibitor concentration of 4 mg/L” value (Serratia marcescens S6; with 102 and clavulanate)?
Answer: Its value is 2 mg/L.

Question: And the “MIC of antibiotic at fixed inhibitor concentration of 4 mg/L” value (Serratia marcescens S6; with 102 and sulbactam)?
Answer: Its value is 2 mg/L.

Question: And the MIC of antibiotic ([3]; antibiotic alone, no inhibitor)?
Answer: Its MIC of antibiotic is 8 mg/L.

Question: And the “MIC of antibiotic at fixed inhibitor concentration of 4 mg/L” value ([3]; with 102 and clavulanate)?
Answer: Its value is 8 mg/L.

Question: And the “MIC of antibiotic at fixed inhibitor concentration of 4 mg/L” value ([3]; with 102 and sulbactam)?
Answer: Its value is 4 mg/L.

Question: And the “Minimal Inhibitory Concentration” value ([4]; + compound 206 4 mg/L)?
Answer: The value was 8 mg/L.

Question: What about the “Minimal Inhibitory Concentration” value ([4]; + compound 323 and sulbactam, 4 mg/L each) of the same compound?
Answer: The value was 8 mg/L.

Question: And the “MIC of antibiotic at fixed inhibitor concentration of 4 mg/L” value ([5]; with 102 and clavulanate)?
Answer: The value was 0.5 mg/L.

Question: And the “MIC of antibiotic at fixed inhibitor concentration of 4 mg/L” value ([5]; with 102 and sulbactam)?
Answer: Its value is 1 mg/L.

Question: What about the “MIC of antibiotic at fixed inhibitor concentration of 4 mg/L” value [6] of the same compound?
Answer: Its value is 16 mg/L.
